According to US20210275522A1, “PHARMACEUTICAL COMPOSITIONS AND USE THEREOF” (priority 2018, published 2021):
“And” between values parts separate entries of the source, which are not always exact repeats. Equal values may be shown once.

Tests used:
Type in all cases: in vivo, SCID mice
[1] = system: human U2932 DLBCL xenograft; experiment: Subcutaneous human U2932 DLBCL xenograft model, combination with alvocidib (SZ-EF-62-2018); conditions: for antitumor activity (in words) / RTV@ D19 / T/C(%)@D19: Compound 1 50 mg/kg q.d×19 d p.o., alvocidib 2.5 mg/kg q.d×7 d and q.w×2 w i.p.; for RTV@ D19 / T/C(%)@D19: day 19
Experimental: (§1) SKM-1 human Myelodysplastic Syndromes (MDS) were maintained in vitro as suspension cultures in RPMI 1640 medium supplemented with 20% fetal bovine serum, 100 U/mL penicillin and 100 µg/mL streptomycin. Cells were maintained at 37° C. in an atmosphere of 5% CO2 in air and passaged twice weekly. Tumor cells growing in an exponential growth phase were harvested and counted for tumor inoculation. Each mouse was inoculated subcutaneously at the right flank region with OCI-AML-3 tumor cells (5×10^6) in 0.2 mL of PBS with 50% matrigel, SKM-1 tumor cells (3×10^7) in 0.2 mL of PBS with 50% matrigel, U2932 tumor cells (1×10^7) in 0.2 mL of PBS with 50% matrigel, for tumor development. After tumor cell inoculation, the animals were checked daily for morbidity and mortality. At the time of routine monitoring, the animals were checked for any effects of tumor growth and treatments on normal behavior such as mobility, visual estimation of food and water consumption, body weight gain/loss (body weights were measured twice weekly), eye/hair matting and any other abnormal effect. Death and observed clinical signs were recorded on the basis of the numbers of animals within each subset. The entire procedures of dosing as well as tumor and body weight measurement were conducted in a Laminar Flow Cabinet. Tumor volumes were measured twice weekly in two dimensions using a caliper, and the volume was expressed in mm^3 using the formula: Tumor Volume (mm^3)=0.5a×b^2 Relative tumor volume (RTV) was calculated using the following formula: RTV=Vt/V1 Synergy score was calculated using the following formula described in Clarke R. Issues in experimental design and endpoint analysis in the study of experimental cytotoxic agents in vivo in breast cancer and other models[J]. Breast Cancer Research & Treatment, 1997, 46(2-3):255-278, which is incorporated by reference in its entirety: Synergy score=(([…]); where A: response to treatment A; B: response to treatment B; C: response to vehicle control; AB: combination of treatment A and B. Synergy score>1, synergistic; score=1, additive; score<1, antagonistic. Standard NCI procedures were used to calculate tumor parameters. Percent tumor growth inhibition (% T/C) was calculated as the mean RTV of treated tumors (T) divided by the mean RTV of control tumors (C)×100%. […] In this study, efficacy of combination treatment with Compound 1 and alvocidib was evaluated in human U2932 DLBCL xenograft model (Study No. SZ-EF-62-2018). Dose treatments were started when the mean tumor volume reached 125 mm^3, the dose treatment start day was defined as day 1.

[2] = system: human OCI-AML-3 AML xenograft; experiment: Subcutaneous human OCI-AML-3 AML xenograft model (SZ-EF-42-2018); conditions: Compound 1 50 mg/kg q.d×15 d p.o., alvocidib 2.5 mg/kg q.d×15 d i.p.; for RTV@ D15 / T/C(%)@ D15: day 15
Experimental: SKM-1 human Myelodysplastic Syndromes (MDS) were maintained in vitro as suspension cultures in RPMI 1640 medium supplemented with 20% fetal bovine serum, 100 U/mL penicillin and 100 µg/mL streptomycin. Cells were maintained at 37° C. in an atmosphere of 5% CO2 in air and passaged twice weekly. Tumor cells growing in an exponential growth phase were harvested and counted for tumor inoculation. Each mouse was inoculated subcutaneously at the right flank region with OCI-AML-3 tumor cells (5×10^6) in 0.2 mL of PBS with 50% matrigel, SKM-1 tumor cells (3×10^7) in 0.2 mL of PBS with 50% matrigel, U2932 tumor cells (1×10^7) in 0.2 mL of PBS with 50% matrigel, for tumor development. After tumor cell inoculation, the animals were checked daily for morbidity and mortality. At the time of routine monitoring, the animals were checked for any effects of tumor growth and treatments on normal behavior such as mobility, visual estimation of food and water consumption, body weight gain/loss (body weights were measured twice weekly), eye/hair matting and any other abnormal effect. Death and observed clinical signs were recorded on the basis of the numbers of animals within each subset. The entire procedures of dosing as well as tumor and body weight measurement were conducted in a Laminar Flow Cabinet. Tumor volumes were measured twice weekly in two dimensions using a caliper, and the volume was expressed in mm^3 using the formula: Tumor Volume (mm^3)=0.5a×b^2 Relative tumor volume (RTV) was calculated using the following formula: RTV=Vt/V1 Synergy score was calculated using the following formula described in Clarke R. Issues in experimental design and endpoint analysis in the study of experimental cytotoxic agents in vivo in breast cancer and other models[J]. Breast Cancer Research & Treatment, 1997, 46(2-3):255-278, which is incorporated by reference in its entirety: Synergy score=(([…]); where A: response to treatment A; B: response to treatment B; C: response to vehicle control; AB: combination of treatment A and B. Synergy score>1, synergistic; score=1, additive; score<1, antagonistic. Standard NCI procedures were used to calculate tumor parameters. Percent tumor growth inhibition (% T/C) was calculated as the mean RTV of treated tumors (T) divided by the mean RTV of control tumors (C)×100%. […] Alvocidib is a flavonoid alkaloid CDK9 kinase inhibitor, which is the first CDKi under clinical development for the treatment of acute myeloid leukemia. In this study, efficacy of combination treatment with Compound 1 and alvocidib was evaluated in human OCI-AML-3 AML xenograft model (Study No. SZ-EF-42-2018). Dose treatments were started when the mean tumor volume reached 95 mm^3, the dose treatment start day was defined as day 1.

[3] = system: human SKM-1 MDS xenograft; experiment: Subcutaneous human SKM-1 MDS xenograft model (SZ-EF-59-2018); conditions: Compound 1 50 mg/kg q.d×21 d p.o., alvocidib 2.5 mg/kg q.d×21 d i.p.; for RTV@ D21 / T/C(%)@D21: day 21
Experimental: as §1, with “SKM-1 MDS” for “U2932 DLBCL”, “SZ-EF-59-2018).” for “SZ-EF-62-2018).”

[4] = system: human U2932 DLBCL xenograft; experiment: Subcutaneous human U2932 DLBCL xenograft model, combination with dinaciclib (SZ-EF-37-2019); conditions: for antitumor activity (in words) / RTV @ D21 (Mean + SEM) / T/C(%)@D21: Compound 1 30 mg/kg, dinaciclib 20 mg/kg; for mRECIST: SD (stable disease): animals with SD / animals in group; for RTV @ D21 (Mean + SEM) / T/C(%)@D21: day 21
Experimental: SKM-1 human Myelodysplastic Syndromes (MDS) were maintained in vitro as suspension cultures in RPMI 1640 medium supplemented with 20% fetal bovine serum, 100 U/mL penicillin and 100 µg/mL streptomycin. Cells were maintained at 37° C. in an atmosphere of 5% CO2 in air and passaged twice weekly. Tumor cells growing in an exponential growth phase were harvested and counted for tumor inoculation. Each mouse was inoculated subcutaneously at the right flank region with OCI-AML-3 tumor cells (5×10^6) in 0.2 mL of PBS with 50% matrigel, SKM-1 tumor cells (3×10^7) in 0.2 mL of PBS with 50% matrigel, U2932 tumor cells (1×10^7) in 0.2 mL of PBS with 50% matrigel, for tumor development. Tumor volumes were measured twice weekly in two dimensions using a caliper, and the volume was expressed in mm^3 using the formula: […] Relative tumor volume (RTV) was calculated using the following formula: […] Synergy score was calculated using the following formula described in Clarke R. Issues in experimental design and endpoint analysis in the study of experimental cytotoxic agents in vivo in breast cancer and other models[J]. Breast Cancer Research & Treatment, 1997, 46(2-3):255-278, which is incorporated by reference in its entirety: Synergy score=(([…]); where A: response to treatment A; B: response to treatment B; C: response to vehicle control; AB: combination of treatment A and B. […] Standard NCI procedures were used to calculate tumor parameters. Percent tumor growth inhibition (% T/C) was calculated as the mean RTV of treated tumors (T) divided by the mean RTV of control tumors (C)×100%. […] To confirm the synergistic antitumor effect between Compound 1 and CDK9 inhibitor in DLBCL, we applied combination therapy with Compound 1 plus CDK9 inhibitor dinaciclib in the same human U2932 DLBCL xenograft model, which was established according to embodiment 2.

Compound | antitumor activity (in words) [1] | RTV@ D19 [1] | T/C(%)@D19 [1] [%] | T/C(%)@D19 ([1]; listed as alvocidib) [%] | occurrence of CR or PR ([1]; single arm) | antitumor activity (in words) [2] | RTV@ D15 [2] | T/C(%)@ D15 [2] [%] | antitumor activity (in words) [3] | RTV@ D21 [3] | T/C(%)@D21 [3] | antitumor activity (in words) [4] | mRECIST: SD (stable disease) [4] | RTV @ D21 (Mean + SEM) [4] | T/C(%)@D21 [4] [%] | mRECIST: PD (progressive disease) ([4]; animals with PD / animals in group)
CN1CC[C@H](c2c(O)cc(O)c3c(=O)cc(-c4ccccc4Cl)oc23)[C@H](O)C1 [Alvocidib, alvocidib] | antitumor activity | 1.19 ± 0.27 | 25.2 | 30.9 | no CR or PR | moderate antitumor activity | 14.0 ± 1.5 | 58.8 | no antitumor activity | 17.2 ± 2.1 | 78.5% | – | – | – | – | –
O=C(NS(=O)(=O)c1ccc(NC[C@H]2COCCO2)c([N+](=O)[O-])c1)c1ccc(N2CCN(CC3=C(c4ccc(Cl)cc4)CC4(CCC4)CC3)CC2)cc1Oc1cnc2[nH]ccc2c1 [Compound 1, (S)—N-((4-(((1,4-dioxan-2-yl)methyl)amino)-3-nitrophenyl)sulfonyl)-2-((1H-pyrrolo[2,3-b]pyridin-5-yl)oxy)-4-(4-((6-(4-chlorophenyl)spiro[3.5]non-6-en-7-yl)methyl)piperazin-1-yl)benzamide] | antitumor activity | 1.46 ± 0.17 | 30.9 | – | – | no antitumor activity | 28.6 ± 2.3 | 120.2 | moderate antitumor activity | 14.7 ± 1.5 | 68.3% and 67.3% | moderate antitumor activity | 5/5 SD | 2.79 ± 0.22 | 53.26 | –
CCc1cnn2c(NCc3ccc[n+]([O-])c3)cc(N3CCCC[C@H]3CCO)nc12 [Dinaciclib, dinaciclib] | – | – | – | – | – | – | – | – | – | – | – | no antitumor activity | 3/5 | 3.74 ± 0.58 | 71.55 | 2/5
